ChEMBL document CHEMBL1128559, “Inhibition of the oncogene product p185erbB-2 in vitro and in vivo by geldanamycin and dihydrogeldanamycin derivatives” (J Med Chem, 1995)
pIC50: −log10 of the molar value.

System: SK-BR-3
Experiment: Inhibition of oncogene product p185 erbB-2 from human breast cancer cells(SK-BR-3 cells).

Compound	pIC50
CO[C@H]1/C=C\C=C(/C)C(=O)NC2=CC(=O)C(NCC(N)=O)=C(C[C@@H](C)C[C@H](OC)[C@H](O)[C@@H](C)/C=C(\C)[C@@H]1OC(N)=O)C2=O	5.70
CO[C@H]1/C=C\C=C(/C)C(=O)NC2=CC(=O)C(NCCCN)=C(C[C@@H](C)C[C@H](OC)[C@H](O)[C@@H](C)/C=C(\C)[C@@H]1OC(N)=O)C2=O	7.10
CO[C@H]1/C=C\C=C(/C)C(=O)NC2=CC(=O)C(NCC(O)CO)=C(C[C@@H](C)C[C@H](OC)[C@H](O)[C@@H](C)/C=C(\C)[C@@H]1OC(N)=O)C2=O (some centres not stated)	6.01
CO[C@H]1/C=C\C=C(/C)C(=O)NC2=CC3=NCCCNC3=C(C[C@@H](C)C[C@H](OC)[C@H](O)[C@@H](C)/C=C(\C)[C@@H]1OC(N)=O)C2=O	6.59
CO[C@H]1/C=C\C=C(/C)C(=O)NC2=CC(=O)C(NCCS(=O)(=O)O)=C(C[C@@H](C)C[C@H](OC)[C@H](O)[C@@H](C)/C=C(\C)[C@@H]1OC(N)=O)C2=O	< 5.57
CNC1=C2C[C@@H](C)C[C@H](OC)[C@H](O)[C@@H](C)/C=C(\C)[C@H](OC(N)=O)[C@@H](OC)/C=C\C=C(/C)C(=O)NC(=CC1=O)C2=O	7.05
CO[C@H]1/C=C\C=C(/C)C(=O)NC2=CC(=O)C(NCCCO)=C(C[C@@H](C)C[C@H](OC)[C@H](O)[C@@H](C)/C=C(\C)[C@@H]1OC(N)=O)C2=O	6.89
COC1=C2C[C@@H](C)C[C@H](OC)[C@H](O)[C@@H](C)/C=C(\C)[C@H](OC(N)=O)[C@@H](OC)/C=C\C=C(/C)C(=O)N3CN(C(C)(C)C)CC(=C3C2=O)C1=O	< 5.52
C#CCNC1=C2C[C@@H](C)C[C@H](OC)[C@H](O)[C@@H](C)/C=C(\C)[C@H](OC(N)=O)[C@@H](OC)/C=C\C=C(/C)C(=O)NC(=CC1=O)C2=O	7.59
CO[C@H]1/C=C\C=C(/C)C(=O)NC2=CC3=NC(/N=C(\N)N4CCC(C)CC4)=NC3=C(C[C@@H](C)C[C@H](OC)[C@H](O)[C@@H](C)/C=C(\C)[C@@H]1OC(N)=O)C2=O	6.82
CO[C@H]1/C=C\C=C(/C)C(=O)NC2=CC(=O)C(NCCSC)=C(C[C@@H](C)C[C@H](OC)[C@H](O)[C@@H](C)/C=C(\C)[C@@H]1OC(N)=O)C2=O	7.01
COC1=C2C[C@@H](C)C[C@H](OC)[C@H](O)[C@@H](C)/C=C(\C)[C@H](OC(N)=O)[C@@H](OC)/C=C\C=C(/C)C(=O)NC(=C(N3C=CC=CC=C3)C1=O)C2=O	5.82
CO[C@H]1/C=C\C=C(/C)C(=O)NC2=CC(=O)C(NCCc3ccco3)=C(C[C@@H](C)C[C@H](OC)[C@H](O)[C@@H](C)/C=C(\C)[C@@H]1OC(N)=O)C2=O	6.49
CO[C@H]1C[C@H](C)CC2=C(N3CC(CO)C3)C(=O)C=C(NC(=O)/C(C)=C/CC[C@H](OC)[C@@H](OC(N)=O)/C(C)=C/[C@H](C)[C@H]1O)C2=O	5.89
CO[C@H]1/C=C\C=C(/C)C(=O)NC2=CC(=O)C(NCCCn3ccnc3)=C(C[C@@H](C)C[C@H](OC)[C@H](O)[C@@H](C)/C=C(\C)[C@@H]1OC(N)=O)C2=O	6.04
COC1=C2C[C@@H](C)C[C@H](OC)[C@H](O)[C@@H](C)/C=C(\C)[C@H](OC(N)=O)[C@@H](OC)/C=C\C=C(/C)C(=O)NC(=C(/C=N/N3CCN(C)CC3)C1=O)C2=O	< 5.54
CO[C@H]1/C=C\C=C(/C)C(=O)NC2=CC(=O)C(NCCC(=O)O)=C(C[C@@H](C)C[C@H](OC)[C@H](O)[C@@H](C)/C=C(\C)[C@@H]1OC(N)=O)C2=O	6.72
COC(CNC1=C2C[C@@H](C)C[C@H](OC)[C@H](O)[C@@H](C)/C=C(\C)[C@H](OC(N)=O)[C@@H](OC)/C=C\C=C(/C)C(=O)NC(=CC1=O)C2=O)OC	6.15
COC1=C2C[C@@H](C)C[C@H](OC)[C@H](O)[C@@H](C)/C=C(\C)[C@H](OC(N)=O)[C@@H](OC)/C=C\C=C(/C)C(=O)NC(=C(NC3CC3)C1=O)C2=O	< 5.49
CO[C@H]1C[C@H](C)CC2=C(NCCSC)C(=O)C=C(NC(=O)/C(C)=C/CC[C@H](OC)[C@@H](OC(N)=O)/C(C)=C/[C@H](C)[C@H]1O)C2=O	6.85
COC1=C2C[C@@H](C)C[C@H](OC)[C@H](O)[C@@H](C)/C=C(\C)[C@H](OC(N)=O)[C@@H](OC)/C=C\C=C(/C)C3=NC(=C(C1=O)C(NC(C)(C)C)O3)C2=O (some centres not stated)	< 5.51
CO[C@H]1/C=C\C=C(/C)C(=O)NC2=CC(=O)C(NC3CC3)=C(C[C@@H](C)C[C@H](OC)[C@H](O)[C@@H](C)/C=C(\C)[C@@H]1OC(N)=O)C2=O	7.37
COC1c2cc(O)cc(c2O)NC(=O)/C(C)=C/C=C\[C@H](OC)[C@@H](OC(N)=O)/C(C)=C/[C@H](C)[C@@H](OC)[C@@H](OC)C[C@@H]1C (some centres not stated)	6.28
CO[C@H]1/C=C\C=C(/C)C(=O)NC2=C(NCCCN(C)C)C(=O)C(NCCCN(C)C)=C(C[C@@H](C)C[C@H](OC)[C@H](O)[C@@H](C)/C=C(\C)[C@@H]1OC(N)=O)C2=O	< 5.39
CO[C@H]1C[C@H](C)CC2=C3N=C(/N=C(\N)N4CCC4)N=C3C=C(NC(=O)/C(C)=C/CC[C@H](OC)[C@@H](OC(N)=O)/C(C)=C/[C@H](C)[C@H]1O)C2=O	6.01
CO[C@H]1/C=C\C=C(/C)C(=O)NC2=CC(=O)C(NC3CCCC3)=C(C[C@@H](C)C[C@H](OC)[C@H](O)[C@@H](C)/C=C(\C)[C@@H]1OC(N)=O)C2=O	< 5.49

Compound	pIC50
CO[C@H]1/C=C\C=C(/C)C(=O)NC2=CC3=NC(/N=C(\N)N4CCOCC4)=NC3=C(C[C@@H](C)C[C@H](OC)[C@H](O)[C@@H](C)/C=C(\C)[C@@H]1OC(N)=O)C2=O	5.69
CO[C@H]1/C=C\C=C(/C)C(=O)NC2=CC(=O)C(NCCCI)=C(C[C@@H](C)C[C@H](OC)[C@H](O)[C@@H](C)/C=C(\C)[C@@H]1OC(N)=O)C2=O	6.96
COC1=C2C[C@@H](C)C[C@H](OC)[C@H](O)[C@@H](C)/C=C(\C)[C@H](OC(N)=O)[C@@H](OC)/C=C\C=C(/C)C(=O)NC(=C(Br)C1=O)C2=O	< 5.50
CO[C@H]1/C=C\C=C(/C)C(=O)NC2=CC(=O)C(N[C@H](C)CO)=C(C[C@@H](C)C[C@H](OC)[C@H](O)[C@@H](C)/C=C(\C)[C@@H]1OC(N)=O)C2=O	6.48
CO[C@H]1/C=C\C=C(/C)C(=O)NC2=CC(=O)C(N3CCCC3C(=O)O)=C(C[C@@H](C)C[C@H](OC)[C@H](O)[C@@H](C)/C=C(\C)[C@@H]1OC(N)=O)C2=O (some centres not stated)	6.10
CO[C@H]1/C=C\C=C(/C)C(=O)NC2=CC(=O)C(N3CC(CO)C3)=C(C[C@@H](C)C[C@H](OC)[C@H](O)[C@@H](C)/C=C(\C)[C@@H]1OC(N)=O)C2=O	5.89
CO[C@H]1/C=C\C=C(/C)C(=O)Nc2cc3nc4ccccc4oc-3c(c2=O)C[C@@H](C)C[C@H](OC)[C@H](O)[C@@H](C)/C=C(\C)[C@@H]1OC(N)=O	6.38
COCCNC1=C2C[C@@H](C)C[C@H](OC)[C@H](O)[C@@H](C)/C=C(\C)[C@H](OC(N)=O)[C@@H](OC)/C=C\C=C(/C)C(=O)NC(=CC1=O)C2=O	7.18
CO[C@H]1/C=C\C=C(/C)C(=O)NC2=CC(=O)C(N3CC(O)C3)=C(C[C@@H](C)C[C@H](OC)[C@H](O)[C@@H](C)/C=C(\C)[C@@H]1OC(N)=O)C2=O	7.30
COC1=C2C[C@@H](C)C[C@H](OC)[C@H](O)[C@@H](C)/C=C(\C)[C@H](OC(N)=O)[C@@H](OC)CC/C=C(\C)C(=O)NC(=CC1=O)C2=O	6.64
CO[C@H]1/C=C\C=C(/C)C(=O)NC2=CC(=O)C(NCC3CCNCC3)=C(C[C@@H](C)C[C@H](OC)[C@H](O)[C@@H](C)/C=C(\C)[C@@H]1OC(N)=O)C2=O	< 5.51
COc1c(O)cc2c(O)c1C[C@@H](C)C[C@H](OC)[C@H](O)[C@@H](C)/C=C(\C)[C@H](OC(N)=O)[C@@H](OC)/C=C\C=C(/C)C(=O)N2	7.00
CO[C@H]1C[C@H](C)CC2=C(N3CC(N)C3)C(=O)C=C(NC(=O)/C(C)=C/CC[C@H](OC)[C@@H](OC(N)=O)/C(C)=C/[C@H](C)[C@H]1O)C2=O	7.18
CO[C@H]1C[C@H](C)CC2=C(NC(C)C)C(=O)C=C(NC(=O)/C(C)=C/CC[C@H](OC)[C@@H](OC(N)=O)/C(C)=C/[C@H](C)[C@H]1O)C2=O	6.33
CO[C@H]1/C=C\C=C(/C)C(=O)NC2=CC(=O)C(NCCS)=C(C[C@@H](C)C[C@H](OC)[C@H](O)[C@@H](C)/C=C(\C)[C@@H]1OC(N)=O)C2=O	6.77
CO[C@H]1/C=C\C=C(/C)C(=O)NC2=CC(=O)C(NC[C@@H](C)O)=C(C[C@@H](C)C[C@H](OC)[C@H](O)[C@@H](C)/C=C(\C)[C@@H]1OC(N)=O)C2=O	6.59
CO[C@H]1/C=C\C=C(/C)C(=O)NC2=CC(=O)C(NC3CN4CCC3CC4)=C(C[C@@H](C)C[C@H](OC)[C@H](O)[C@@H](C)/C=C(\C)[C@@H]1OC(N)=O)C2=O (some centres not stated)	5.86
CO[C@H]1/C=C\C=C(/C)C(=O)NC2=CC(=O)C(N=C(N(C)C)N(C)C)=C(C[C@@H](C)C[C@H](OC)[C@H](O)[C@@H](C)/C=C(\C)[C@@H]1OC(N)=O)C2=O	6.77
CO[C@H]1/C=C\C=C(/C)C(=O)NC2=CC(=O)C(NC(C)(C)C)=C(C[C@@H](C)C[C@H](OC)[C@H](O)[C@@H](C)/C=C(\C)[C@@H]1OC(N)=O)C2=O	6.70
CO[C@H]1/C=C\C=C(/C)C(=O)Nc2cc3nc4ccccc4nc3c(c2O)C[C@@H](C)C[C@H](OC)[C@H](O)[C@@H](C)/C=C(\C)[C@@H]1OC(N)=O	< 5.49
CO[C@H]1/C=C\C=C(/C)C(=O)NC2=CC(=O)C(NCc3ccccc3)=C(C[C@@H](C)C[C@H](OC)[C@H](O)[C@@H](C)/C=C(\C)[C@@H]1OC(N)=O)C2=O	6.10
CO[C@H]1C[C@H](C)CC2=C(NCCC(=O)O)C(=O)C=C(NC(=O)/C(C)=C/CC[C@H](OC)[C@@H](OC(N)=O)/C(C)=C/[C@H](C)[C@H]1O)C2=O	< 5.49
CO[C@H]1/C=C\C=C(/C)C(=O)NC2=CC(=O)C(N[C@@H](C)CO)=C(C[C@@H](C)C[C@H](OC)[C@H](O)[C@@H](C)/C=C(\C)[C@@H]1OC(N)=O)C2=O	6.74
CO[C@H]1/C=C\C=C(/C)C(=O)NC2=CC(=O)C(Nc3nccs3)=C(C[C@@H](C)C[C@H](OC)[C@H](O)[C@@H](C)/C=C(\C)[C@@H]1OC(N)=O)C2=O	6.66
CO[C@H]1/C=C\C=C(/C)C(=O)NC2=CC(=O)C(NCCO)=C(C[C@@H](C)C[C@H](OC)[C@H](O)[C@@H](C)/C=C(\C)[C@@H]1OC(N)=O)C2=O	7.00
CO[C@H]1/C=C\C=C(/C)C(=O)NC2=CC(=O)C(O)=C(C[C@@H](C)C[C@H](OC)[C@H](O)[C@@H](C)/C=C(\C)[C@@H]1OC(N)=O)C2=O	< 5.43
